Test results reported in patent US12570655B2, “Cysteine covalent modifiers of AKT1 and uses thereof” (Terremoto Biosciences, Inc., priority 2023, dated 2026).
Like-named read-outs stand apart in the source and are kept apart here.

How the values were obtained:
AKT1 E17K = target: T1, AKT1 E17K (Homo sapiens, UniProt P31749, E17K); test: Live cell AKT1 E17K target engagement by NanoBRET competitive probe displacement; type: cell-based; details: HEK293 cells transfected with kinase-NanoLuciferase fusion, 2 h at 37° C.
T1 construct: expressed in transfected cells; host or cells: HEK293
T1 sequence (P31749 whole entry E17K, the tested form may be a part): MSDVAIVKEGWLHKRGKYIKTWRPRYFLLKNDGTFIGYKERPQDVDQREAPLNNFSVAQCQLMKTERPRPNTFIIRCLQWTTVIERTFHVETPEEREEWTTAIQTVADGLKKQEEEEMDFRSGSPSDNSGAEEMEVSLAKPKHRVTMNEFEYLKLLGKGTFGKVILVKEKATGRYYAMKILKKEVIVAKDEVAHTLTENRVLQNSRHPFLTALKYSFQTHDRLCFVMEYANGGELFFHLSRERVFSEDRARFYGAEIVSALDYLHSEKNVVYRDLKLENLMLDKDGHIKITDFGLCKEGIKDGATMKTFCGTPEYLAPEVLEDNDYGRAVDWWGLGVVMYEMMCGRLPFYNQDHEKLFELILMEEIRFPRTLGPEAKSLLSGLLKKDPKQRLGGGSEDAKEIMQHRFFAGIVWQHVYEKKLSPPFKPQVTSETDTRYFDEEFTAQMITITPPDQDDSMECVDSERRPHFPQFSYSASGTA
Method: Determining Live Cell AKT1 E17K, AKT1 WT, and AKT2 Target Engagement by NanoBRET Competitive Probe Displacement.
Live cell target engagement assays were performed as described (Vasta, J. D. et al. Cell Chem Biol 2018, 25(11), 206-214). Briefly, HEK293 cells were transfected with plasmids encoding kinase-NanoLuciferase fusion proteins overnight. Cells were then treated with serial dilutions of compound and an ˜EC50 concentration of fluorescently-tagged ATP-competitive tracer (Promega). After incubation for 2 h at 37° C., luciferase substrate and extracellular luciferase inhibitor were added to all wells, and luminescent intensity at 460 nm and 600 nm were measured on a multimode plate-reader. The ratio of E600/E460 was calculated to give the tracer engagement signal (BRET). IC50 values were calculated by fitting BRET values to a log(inhibitor) vs. response Hill equation.

[1] = tested on: LAPC4 prostate cancer cells; test: Antiproliferative effects in LAPC4 cells (CellTiter Glo); type: cell-based; details: LAPC4 cells (AKT1 E17K allele), read-out: LAPC4 proliferation IC50
Method: Antiproliferative Effects in LAPC4 Cells.
LAPC4 prostate cancer cells (Klein, K. A. et al. Nat Med 1997, 3, 402-408), which express the AKT1 E17K allele, were grown in IMDM media (Hyclone) supplemented with 12% FBS+1% P/S. To assess compound effects on growth, 1,000 cells/well were seeded in 384 well assay plates, incubated with compound dilutions dissolved in DMSO. After 72 h, intracellular ATP content was assessed with CellTiter Glo reagent (Promega) according to the manufacturer's instructions. IC50 values were calculated by fitting luminescence values to a log(inhibitor) vs. response Hill equation.

Compound	IC50 (AKT1 E17K) [nM]	IC50 ([1]; Homo sapiens, LAPC4, 72 h) [nM]	IC50 ([1]; 72 h) [nM]
C=CC(=O)N1CCC(N[C@H]2CCc3cc(-n4c(-c5ccccc5C#N)nc5ccc(-n6cccn6)nc54)ccc32)CC1 [Example 284, 2-{3-[(1S)-1-{[1-(prop-2-enoyl)piperidin-4-yl]amino}-2,3-dihydro-1H-inden-5-yl]-5-(pyrazol-1-yl)imidazo[4,5-b]pyridin-2-yl}benzonitrile]	273	7210	
C=CC(=O)N1CCC(N[C@H]2CCc3cc(-n4c(-c5cccnc5N)nc5ccc(-c6ccccc6)nc54)ccc32)CC1 [Example 209, (S)-1-(4-((5-(2-(2-aminopyridin-3-yl)-5-phenyl-3H-imidazo[4,5-b]pyridin-3-yl)-2,3-dihydro-1H-inden-1-yl)amino)piperidin-1-yl)prop-2-en-1-one]	2.29	17	
C=CC(=O)N1Cc2cccc(C(=O)N[C@H]3CCc4cc(-n5c(-c6cccnc6N)nc6ccc(-n7cccn7)nc65)ccc43)c2C1 [Example 266, (S)-2-acryloyl-N-(5-(2-(2-aminopyridin-3-yl)-5-(1H-pyrazol-1-yl)-3H-imidazo[4,5-b]pyridin-3-yl)-2,3-dihydro-1H-inden-1-yl)isoindoline-4-carboxamide]	3.34	4.4	
C=CC(=O)N1CCCC(c2cn([C@H]3CCc4cc(-n5c(-c6cccnc6N)nc6ccc(-n7cccn7)nc65)ccc43)nn2)C1 (single isomer, unassigned) [Example 167, 1-((*)-3-(1-((S)-5-(2-(2-aminopyridin-3-yl)-5-(1H-pyrazol-1-yl)-3H-imidazo[4,5-b]pyridin-3-yl)-2,3-dihydro-1H-inden-1-yl)-1H-1,2,3-triazol-4-yl)piperidin-1-yl)prop-2-en-1-one]	37.1	479	
C=CC(=O)N1CCC(N[C@H]2CCc3cc(-n4c(C5CC5)nc5ccc(-n6cccn6)nc54)ccc32)CC1 [Example 248, (S)-1-(4-((5-(2-cyclopropyl-5-(1H-pyrazol-1-yl)-3H-imidazo[4,5-b]-430-pyridine-3-yl)-2,3-dihydro-1H-inden-1-yl)amino)piperidin-1-yl)prop-2-en-1-one]	> 1000	> 10000	
C=CC(=O)N1CCC(N[C@@H]2c3c(F)cc(-n4c(-c5cccnc5N)nc5ccc(-n6cccn6)nc54)cc3CC2F)CC1 (single isomer, unassigned) [Example 341, 1-(4-(((1R,2*)-5-(2-(2-aminopyridin-3-yl)-5-(1H-pyrazol-1-yl)-3H-imidazo[4,5-b]pyridin-3-yl)-2,7-difluoro-2,3-dihydro-1H-inden-1-yl)amino)piperidin-1-yl)prop-2-en-1-one]	80.3		
C=CC(=O)N1CCC(N[C@H]2CCc3cc(-n4c(-c5cccnc5N)nc5ccc(N6C7CCC6COC7)nc54)ccc32)CC1 [Example 278, 1-(4-{[(1S)-5-[2-(2-aminopyridin-3-yl)-5-{3-oxa-8-azabicyclo[3.2.1]octan-8-yl}imidazo[4,5-b]pyridin-3-yl]-2,3-dihydro-1H-inden-1-yl]amino}piperidin-1-yl)prop-2-en-1-one]	164	1850	
C=CC(=O)N1C[C@H]2COC[C@@H](C1)C2N[C@H]1CCc2cc(-n3c(-c4cccnc4N)nc4ccc(C5CC5)nc43)ccc21 (single isomer, unassigned) [Example 171, 1-((1R,5S,9*)-9-(((S)-5-(2-(2-aminopyridin-3-yl)-5-cyclopropyl-3H-imidazo[4,5-b]pyridin-3-yl)-2,3-dihydro-1H-inden-1-yl)amino)-3-oxa-7-azabicyclo[3.3.1]nonan-7-yl)prop-2-en-1-one]	> 1000		6610
C=CC(=O)N1CCC(N[C@H]2CCc3cc(-n4c(-c5cccnc5N)nc5ccc(CN6CCOCC6)nc54)ccc32)CC1 [Example 260, 1-(4-{[(1S)-5-[2-(2-aminopyridin-3-yl)-5-(morpholin-4-ylmethyl)imidazo[4,5-b]pyridin-3-yl]-2,3-dihydro-1H-inden-1-yl]amino}piperidin-1-yl)prop-2-en-1-one]	> 1000	> 10000	
C=CC(=O)N1CCC(N[C@H]2CCc3cc(-n4c(-c5cccnc5N)nc5ccc(C6COC6)nc54)ccc32)CC1 [Example 279, 1-(4-{[(1S)-5-[2-(2-aminopyridin-3-yl)-5-(oxetan-3-yl)imidazo[4,5-b]pyridin-3-yl]-2,3-dihydro-1H-inden-1-yl]amino}piperidin-1-yl)prop-2-en-1-one]	168	1570	

Now from value to compound:

IC50 (AKT1 E17K) [nM]	IC50 ([1]; Homo sapiens, LAPC4, 72 h) [nM]	IC50 ([1]; 72 h) [nM]	Compound
604	1550		C=CC(=O)N1CCC(N[C@H]2CCc3cc(-n4c(-c5ccccc5C(F)F)nc5ccc(-n6cccn6)nc54)ccc32)CC1 [Example 285, (S)-1-(4-((5-(2-(2-(difluoromethyl)phenyl)-5-(1H-pyrazol-1-yl)-3H-imidazo[4,5-b]pyridin-3-yl)-2,3-dihydro-1H-inden-1-yl)amino)piperidin-1-yl)prop-2-en-1-one]
287	3820		C=CC(=O)N1CCN(C2CCc3cc(-n4c(-c5cccnc5N)nc5ccc(-n6cccn6)nc54)ccc32)CC1 (stereo not shown) [Example 204, 1-(4-{5-[2-(2-aminopyridin-3-yl)-5-(pyrazol-1-yl)imidazo[4,5-b]pyridin-3-yl]-2,3-dihydro-1H-inden-1-yl}piperazin-1-yl)prop-2-en-1-one]
63.4	2740		C=CC(=O)N1CCC(N[C@H]2CC(F)(F)c3cc(-n4c(-c5cccnc5N)nc5ccc(-n6cccn6)nc54)ccc32)CC1 [Example 305, (S)-1-(4-((5-(2-(2-aminopyridin-3-yl)-5-(1H-pyrazol-1-yl)-3H-imidazo[4,5-b]pyridin-3-yl)-3,3-difluoro-2,3-dihydro-1H-inden-1-yl)amino)piperidin-1-yl)prop-2-en-1-one]
> 1000		> 10000	C=CC(=O)N1CC(F)C(N[C@H]2CCc3cc(-n4c(-c5cccnc5N)nc5ccc(-n6cccn6)nc54)ccc32)C(F)C1 (single isomer, unassigned) [Example 222, 1-((3*,5*)-4-(((S)-5-(2-(2-aminopyridin-3-yl)-5-(1H-pyrazol-1-yl)-3H-imidazo[4,5-b]pyridin-3-yl)-2,3-dihydro-1H-inden-1-yl)amino)-3,5-difluoropiperidin-1-yl)prop-2-en-1-one]
567		> 10000	C=CC(=O)N1CC(F)C(N[C@H]2CCc3cc(-n4c(-c5cccnc5N)nc5ccc(-n6cccn6)nc54)ccc32)C(F)C1 (single isomer, unassigned) [Example 221, 1-((3*,4*,5*)-4-(((S)-5-(2-(2-aminopyridin-3-yl)-5-(1H-pyrazol-1-yl)-3H-imidazo[4,5-b]pyridin-3-yl)-2,3-dihydro-1H-inden-1-yl)amino)-3,5-difluoropiperidin-1-yl)prop-2-en-1-one]
> 1000		> 10000	C=CC(=O)N1CC(F)C(N[C@H]2CCc3cc(-n4c(-c5cccnc5N)nc5ccc(-n6cccn6)nc54)ccc32)C(F)C1 (single isomer, unassigned) [Example 223, 1-((3*,5*)-4-(((S)-5-(2-(2-aminopyridin-3-yl)-5-(1H-pyrazol-1-yl)-3H-imidazo[4,5-b]pyridin-3-yl)-2,3-dihydro-1H-inden-1-yl)amino)-3,5-difluoropiperidin-1-yl)prop-2-en-1-one]
4.56		42.3	C=CC(=O)N1CCC(N[C@H]2CCc3cc(-n4c(-c5cccnc5N)nc5ccc(-n6cccn6)nc54)ccc32)C[C@H]1C(F)F (single isomer, unassigned) [Example 215, 1-((2S,4*)-4-(((S)-5-(2-(2-aminopyridin-3-yl)-5-(1H-pyrazol-1-yl)-3H-imidazo[4,5-b]pyridin-3-yl)-2,3-dihydro-1H-inden-1-yl)amino)-2-(difluoromethyl)piperidin-1-yl)prop-2-en-1-one]
152		3160	C=CC(=O)N1CCC(N[C@@H]2c3ccc(-n4c(-c5cccnc5N)nc5ccc(-n6cccn6)nc54)cc3CC2C)CC1 (single isomer, unassigned) [Example 182, 1-(4-(((1S,2*)-5-(2-(2-aminopyridin-3-yl)-5-(1H-pyrazol-1-yl)-3H-imidazo[4,5-b]pyridin-3-yl)-2-methyl-2,3-dihydro-1H-inden-1-yl)amino)piperidin-1-yl)prop-2-en-1-one]
380	> 10000		C=CC(=O)N1CC(F)C(N[C@H]2CCc3cc(-n4c(-c5cccnc5N)nc5ccc(-n6cccn6)nc54)ccc32)C(F)C1 (single isomer, unassigned) [Example 220, 1-((3*,4*,5*)-4-(((S)-5-(2-(2-aminopyridin-3-yl)-5-(1H-pyrazol-1-yl)-3H-imidazo[4,5-b]pyridin-3-yl)-2,3-dihydro-1H-inden-1-yl)amino)-3,5-difluoropiperidin-1-yl)prop-2-en-1-one]
